Our source for the IC50 values is ChEMBL document CHEMBL1135965, “A novel dicyanotriterpenoid, 2-cyano-3,12-dioxooleana-1,9(11)-dien-28-onitrile, active at picomolar concentrations for inhibition of nitric oxide production” (Bioorg Med Chem Lett, 2002).

pIC50: −log10 of the molar value.

This assay is filed under the species Mus musculus. Description: Inhibitory activity against production of nitric oxide induced by interferon gamma in mouse macrophages. The format is functional, organism-based.
For the molecule `CC1(C)CC[C@]2(C(=O)n3ccnc3)CC[C@]3(C)[C@H](C(=O)C=C4[C@@]5(C)C=C(C#N)C(=O)C(C)(C)[C@@H]5CC[C@]43C)[C@@H]2C1`, the pIC50 is 10.85.
The same measure for `CCCN(CCC)C(=O)[C@]12CCC(C)(C)CC1C1C(=O)C=C3[C@@]4(C)C=C(C#N)C(=O)C(C)(C)[C@@H]4CC[C@@]3(C)[C@]1(C)CC2` (stereo not given in full): 7.48.
The same measure for `CC1(C)CC[C@]2(C#N)CC[C@]3(C)C(C(=O)C=C4[C@@]5(C)C=C(C(=O)O)C(=O)C(C)(C)[C@@H]5CC[C@]43C)C2C1` (stereo not given in full): 8.77; for `CC1(C)CC[C@]2(C(=O)NN)CC[C@]3(C)C(C(=O)C=C4[C@@]5(C)C=C(C#N)C(=O)C(C)(C)[C@@H]5CC[C@]43C)C2C1` (stereo not given in full): 9.59.
Next, `CC1(C)CC[C@]2(C(=O)N3CCC(N4CCCCC4)CC3)CC[C@]3(C)C(C(=O)C=C4[C@@]5(C)C=C(C#N)C(=O)C(C)(C)[C@@H]5CC[C@]43C)C2C1` (stereo not given in full): 9.00; `CCCNC(=O)[C@]12CCC(C)(C)CC1C1C(=O)C=C3[C@@]4(C)C=C(C#N)C(=O)C(C)(C)[C@@H]4CC[C@@]3(C)[C@]1(C)CC2` (stereo not given in full): 8.82.
`CCCCCCNC(=O)[C@]12CCC(C)(C)CC1C1C(=O)C=C3[C@@]4(C)C=C(C#N)C(=O)C(C)(C)[C@@H]4CC[C@@]3(C)[C@]1(C)CC2` (stereo not given in full) gave a pIC50 of 7.83.
The same measure for `CC1(C)CC[C@]2(C(=O)NCc3ccccc3)CC[C@]3(C)C(C(=O)C=C4[C@@]5(C)C=C(C#N)C(=O)C(C)(C)[C@@H]5CC[C@]43C)C2C1` (stereo not given in full): 8.04; for `CC1(C)CC[C@]2(C(=O)N3CCCC3)CC[C@]3(C)C(C(=O)C=C4[C@@]5(C)C=C(C#N)C(=O)C(C)(C)[C@@H]5CC[C@]43C)C2C1` (stereo not given in full): 9.10.
Next, `CC1(C)CC[C@]2(C(=O)OCC3CC3)CC[C@]3(C)C(C(=O)C=C4[C@@]5(C)C=C(C#N)C(=O)C(C)(C)[C@@H]5CC[C@]43C)C2C1` (stereo not given in full): 8.35; `CC(=O)OC[C@H]1O[C@@H](OC(=O)[C@]23CCC(C)(C)CC2C2C(=O)C=C4[C@@]5(C)C=C(C#N)C(=O)C(C)(C)[C@@H]5CC[C@@]4(C)[C@]2(C)CC3)[C@H](OC(C)=O)[C@H](OC(C)=O)[C@@H]1OC(C)=O` (stereo not given in full): 10.15.
The same measure for `CC1(C)CC[C@]2(C(=O)Nc3ccccc3)CC[C@]3(C)C(C(=O)C=C4[C@@]5(C)C=C(C#N)C(=O)C(C)(C)[C@@H]5CC[C@]43C)C2C1` (stereo not given in full): 7.54; for `CC1(C)CC[C@]2(C(=O)N3CCOCC3)CC[C@]3(C)C(C(=O)C=C4[C@@]5(C)C=C(C#N)C(=O)C(C)(C)[C@@H]5CC[C@]43C)C2C1` (stereo not given in full): 8.62; for `CC1(C)CC[C@]2(C(=O)OCc3ccccc3)CC[C@]3(C)C(C(=O)C=C4[C@@]5(C)C=C(C#N)C(=O)C(C)(C)[C@@H]5CC[C@]43C)C2C1` (stereo not given in full): 8.36.
Take `CC1(C)CC[C@]2(C(N)=O)CC[C@]3(C)C(C(=O)C=C4[C@@]5(C)C=C(C#N)C(=O)C(C)(C)[C@@H]5CC[C@]43C)C2C1` (stereo not given in full): the negative logarithm of the IC50 (pIC50) is 10.01. Against the preceding molecule, the pIC50 is 1.65 log units higher.
Next, `CN(C)C(=O)[C@]12CCC(C)(C)CC1C1C(=O)C=C3[C@@]4(C)C=C(C#N)C(=O)C(C)(C)[C@@H]4CC[C@@]3(C)[C@]1(C)CC2` (stereo not given in full): 8.81; `CCCCCCCCOC(=O)[C@]12CCC(C)(C)CC1C1C(=O)C=C3[C@@]4(C)C=C(C#N)C(=O)C(C)(C)[C@@H]4CC[C@@]3(C)[C@]1(C)CC2` (stereo not given in full): 7.22.
The same measure for `CC1(C)CC[C@]2(C(=O)O[C@@H]3O[C@H](CO)[C@@H](O)[C@H](O)[C@H]3O)CC[C@]3(C)C(C(=O)C=C4[C@@]5(C)C=C(C#N)C(=O)C(C)(C)[C@@H]5CC[C@]43C)C2C1` (stereo not given in full): 8.00.
Next, `C=CCOC(=O)[C@]12CCC(C)(C)CC1C1C(=O)C=C3[C@@]4(C)C=C(C#N)C(=O)C(C)(C)[C@@H]4CC[C@@]3(C)[C@]1(C)CC2` (stereo not given in full): 8.88; `CNC(=O)[C@]12CCC(C)(C)CC1C1C(=O)C=C3[C@@]4(C)C=C(C#N)C(=O)C(C)(C)[C@@H]4CC[C@@]3(C)[C@]1(C)CC2` (stereo not given in full): 9.24.
In turn, `CC1(C)CC[C@]2(C(=O)N3CCCCC3)CC[C@]3(C)C(C(=O)C=C4[C@@]5(C)C=C(C#N)C(=O)C(C)(C)[C@@H]5CC[C@]43C)C2C1` (stereo not given in full) gave a pIC50 of 9.02. This pIC50 is 0.22 log units lower than that of the molecule before.
The same measure for `CCCCOC(=O)[C@]12CCC(C)(C)CC1C1C(=O)C=C3[C@@]4(C)C=C(C#N)C(=O)C(C)(C)[C@@H]4CC[C@@]3(C)[C@]1(C)CC2` (stereo not given in full): 8.18; for `COC(=O)[C@]12CCC(C)(C)CC1C1C(=O)C=C3[C@@]4(C)C=C(C(=O)O)C(=O)C(C)(C)[C@@H]4CC[C@@]3(C)[C@]1(C)CC2` (stereo not given in full): 8.02; for `CCOC(=O)[C@]12CCC(C)(C)CC1C1C(=O)C=C3[C@@]4(C)C=C(C#N)C(=O)C(C)(C)[C@@H]4CC[C@@]3(C)[C@]1(C)CC2` (stereo not given in full): 9.10.
Next, `CCOC(=O)[C@]12CCC(C)(C)CC1C1C(=O)C=C3[C@@]4(C)C=C(C(=O)O)C(=O)C(C)(C)[C@@H]4CC[C@@]3(C)[C@]1(C)CC2` (stereo not given in full): 8.10.
Consider `CC1(C)CC[C@]2(C(=O)n3cccn3)CC[C@]3(C)C(C(=O)C=C4[C@@]5(C)C=C(C#N)C(=O)C(C)(C)[C@@H]5CC[C@]43C)C2C1` (stereo not given in full), for which the pIC50 is 7.92.
As for `COC(=O)[C@]12CCC(C)(C)C[C@H]1[C@H]1C(=O)C=C3[C@@]4(C)C=C(C#N)C(=O)C(C)(C)[C@@H]4CC[C@@]3(C)[C@]1(C)CC2` [BARDOXOLONE METHYL], the pIC50 is 9.96.
The same measure for `CC1(C)CC[C@]2(C(=O)O)CC[C@]3(C)[C@H](C(=O)C=C4[C@@]5(C)C=C(C#N)C(=O)C(C)(C)[C@@H]5CC[C@]43C)[C@@H]2C1` [BARDOXOLONE]: 9.36.
In turn, `CC1(C)CC[C@]2(C#N)CC[C@]3(C)C(C(=O)C=C4[C@@]5(C)C=C(C#N)C(=O)C(C)(C)[C@@H]5CC[C@]43C)C2C1` (stereo not given in full) [CDDO-CN] had a pIC50 of 11.46.
The same measure for `CC1(C)CC[C@]2(C(=O)O)CC[C@]3(C)C(=CC[C@@H]4[C@@]5(C)CC[C@H](O)C(C)(C)[C@@H]5CC[C@]43C)[C@@H]2C1` [OLEANOLIC_ACID]: less than 4.40.

As a reminder, the pIC50 is the negative decadic logarithm of the IC50, by convention in mol/L.
